Experimental data from patent publication US8247566B2, “Crystalline solvate of omeprazole sodium” (Lek Pharmaceuticals d.d., priority 2005, dated 2012).

Key:
[1] = Solid state / storage stability; assay type: physicochemical
Excerpt: The stability of omeprazole sodium form A obtained by the processes of the present invention may be determined by standard protocol for characterisation of stability of a pharmaceutically active substance (EU: Adopted by CPMP, March 2003, issued as CPMP/ICH/2736/99—“Committee for proprietary medical products; Note for Guidance on ICH Q1A (R2) Stability testing guidelines: Stability testing of new drug substances and products”). Packed omeprazole sodium form A was aged for a definite period of time (1 month, 3 months, 6 months) under accelerated conditions of aging (at a temperature of 40° C. and 75% relative humidity which is a standard accelerated condition for stability testing of pharmaceutical formulations) and/or stress condition of aging (at a temperature of 60° C. which is a standard stress condition for stability testing of pharmaceutically active substances). Determination of absorbance measured according to the PhEur method (PhEur 3 Suppl 2000) was used as a criterion for evaluation of the sample quality during stability testing. It has previously been shown that measurement of absorbance is a more sensitive method for monitoring the process of omeprazole sodium decomposition than, for example, detection of present impurities using chromatographic methods (PhEur 3 Suppl 2000).

[2] = Solubility in water; assay type: physicochemical
[3] = prior art description (EP-B-124 495, US 6,207,188, US 2004/0224987); cited from earlier work
[4] = prior art description (US 6,207,188, US 2004/0224987); cited from earlier work

COc1ccc2[n-]c([S+]([O-])Cc3ncc(C)c(OC)c3C)nc2c1.[Na+] (centres unmarked) [omeprazole sodium form A, omeprazole sodium]
stability on storage (chemical composition, hygroscopicity, solubility, crystalline form) [1]: stable
solubility in water [2]: highly soluble in water

COc1ccc2[n-]c([S+]([O-])Cc3ncc(C)c(OC)c3C)nc2c1.O.[Na+] (centres unmarked) [omeprazole sodium form B, omeprazole sodium monohydrate salt]
hygroscopicity as described in prior art [3]: non-hygroscopic
thermodynamic stability as described in prior art [4]: thermodynamically stable

COc1ccc2[n-]c([S+]([O-])Cc3ncc(C)c(OC)c3C)nc2c1.[Na+] (centres unmarked) [omeprazole sodium form E, omeprazole sodium]
stability under special conditions ([1]; stored under nitrogen atmosphere): stable compounds under special conditions
